From paper PMC11203978, “Discovery of Di(het)arylmethane and Dibenzoxanthene Derivatives as Potential Anticancer Agents” (International Journal of Molecular Sciences, 2024)

Experiments:
M-HeLa = experiment: MTT cytotoxicity, M-HeLa; assay type: cell-based, human; settings: M-HeLa
Excerpt: (§1) Cells and Materials. For the experiments, we used tumor cell cultures M-HeLa clone 11 (epithelioid carcinoma of the cervix, subline HeLa, clone M-HeLa), HuTu 80, human duodenal adenocarcinoma, Hep-2, human epithelial cells, SH-SY5Y, human neuroblast-like cells, A549, human lung adenocarcinoma, PA-1, human ovarian teratocarcinoma and MCF-7, a human mammary ductal adenocarcinoma from the collection of the Institute of Cytology, Russian Academy of Sciences (St. Petersburg, Russia); human liver cells (Chang liver) were from the collection and the Research Institute of Virology of the Russian Academy of Medical Sciences (Moscow, Russia).
(§2) MTT Assay. The cytotoxic effect on cells was determined using the colorimetric method of cell proliferation—the MTT test. NADP-H-dependent cellular oxidoreductase enzymes can, under certain conditions, reflect the number of viable cells. These enzymes reduce the tetrazolium dye (MTT) 3-(4,5-dimethylthiazol-2-yl)-2,5-diphenyl-tetrazolium bromide to insoluble blue-violet formazan, which crystallizes inside the cell. The amount of formed formazan is proportional to the number of cells with active metabolism. Cells were seeded on a 96-well Nunc plate at a concentration of 5 × 10^3 cells per well in a volume of 100 μL of medium and cultured in a CO2 incubator at 37 °C until a monolayer was formed. After the nutrient medium was removed, 100 µL of the test drug solutions at the given dilutions were added to the wells, which were prepared directly in the nutrient medium with the addition of 5% DMSO to improve solubility. After 48 h of incubation of the cells with the tested compounds, the nutrient medium was removed from the plates and 100 µL of the nutrient medium without serum with MTT at a concentration of 0.5 mg/mL was added and incubated for 4 h at 37 °C. Formazan crystals were added 100 µL of DMSO to each well. Optical density was recorded at 540 nm on an Invitrologic microplate reader (Novosibirsk, Russia). The experiments for all compounds were repeated three times.
(§3) Statistical analysis. The IC50 values were calculated using the MLA–Quest Graph™ IC50 Calculator (AAT Bioquest, Inc., Sunnyvale, CA, USA), 14 February 2022. Statistical analysis was performed with the Mann–Whitney test (p < 0.05). Tabular and graphical data contain averages and standard error.

HuTu 80 = experiment: MTT cytotoxicity, HuTu 80; assay type: cell-based, human
Excerpt: as §1, §2, §3

Chang Liver = experiment: MTT cytotoxicity, normal Chang liver cells; assay type: cell-based, human; settings: Homo sapiens, Chang liver, 48 h incubation, read-out: IC50 (µM) Normal Cell Line Chang Liver
Excerpt: as §1, §2, §3

Hep-2 = experiment: MTT cytotoxicity, Hep-2; assay type: cell-based; settings: Homo sapiens, read-out: IC50 (µM) Cancer Cell Lines Hep-2
Excerpt: as §1
(§4) MTT Assay. The cytotoxic effect on cells was determined using the colorimetric method of cell proliferation—the MTT test. NADP-H-dependent cellular oxidoreductase enzymes can, under certain conditions, reflect the number of viable cells. These enzymes reduce the tetrazolium dye (MTT) 3-(4,5-dimethylthiazol-2-yl)-2,5-diphenyl-tetrazolium bromide to insoluble blue-violet formazan, which crystallizes inside the cell. The amount of formed formazan is proportional to the number of cells with active metabolism. […] Optical density was recorded at 540 nm on an Invitrologic microplate reader (Novosibirsk, Russia). […]
(§5) Statistical analysis. The IC50 values were calculated using the MLA–Quest Graph™ IC50 Calculator (AAT Bioquest, Inc., Sunnyvale, CA, USA), 14 February 2022. […]

SH-SY5Y = experiment: MTT cytotoxicity, SH-SY5Y; assay type: cell-based; settings: Homo sapiens, read-out: IC50 (µM) Cancer Cell Lines SH-SY5Y
Excerpt: as §1, §4, §5

A549 = experiment: MTT cytotoxicity, A549; assay type: cell-based; settings: Homo sapiens, read-out: IC50 (µM) Cancer Cell Lines A549
Excerpt: as §1, §4, §5

PA-1 = experiment: MTT cytotoxicity, PA-1; assay type: cell-based; settings: Homo sapiens, read-out: IC50 (µM) Cancer Cell Lines PA-1
Excerpt: as §1, §4, §5

MCF-7 = experiment: MTT cytotoxicity, MCF-7; assay type: cell-based; settings: Homo sapiens, MCF7, read-out: IC50 (µM) Cancer Cell Lines MCF-7
Excerpt: as §1, §4, §5

HuTu 80 cells [1] = experiment: Induction of apoptosis, flow cytometry (annexin V-Alexa Fluor 647 / propidium iodide); assay type: cell-based, human; settings: IC50/2 and IC50, 24 h
Method: The ability of the new compounds, proposed as antitumor agents, to induce cell death via apoptosis is a critical feature for their potential use in therapy. The apoptosis-inducing effects of lead compounds were investigated using flow cytometry at IC50/2 and IC50 concentrations on the HuTu 80 cell line (Figure 6A).
Cell Culture. HuTu 80 cells at 1 × 10^6 cells/well in a final volume of 2 mL were seeded into six-well plates. After 48 h of incubation, various concentrations of lead compounds were added to wells.
Cell Apoptosis Analysis. The cells were harvested at 2000 rpm for 5 min and were then washed twice with ice-cold PBS, and resuspended in binding buffer. Next, the samples were incubated with 5 μL of annexin V-Alexa Fluor 647 (Sigma-Aldrich, St Louis, MO, USA) and 5 μL of propidium iodide for 15 min at room temperature in the dark. Finally, the cells were analyzed using flow cytometry (Guava easy Cyte, MERCK, Rahway, NJ, USA) within 1 h. The experiments were repeated three times.

HuTu 80 cells [2] = experiment: Intracellular ROS, CellROX Deep Red flow cytometry; assay type: cell-based, human; settings: IC50/2 and IC50
Method: The apoptosis via the mitochondrial pathway also increases the production of reactive oxygen species (ROS). As mitochondria itself becomes the target of ROS, an increase in their production disrupts mitochondrial functions and culminates in irreversible cell damage. Therefore, the effect of lead compounds 6a and 5a at IC50/2 and IC50 concentrations on ROS production in HuTu 80 cells was evaluated using flow cytometry. […] Such an effect is not observed for intact cells in the presence of both compounds, indicating an increase in ROS production in cancer tissues.
Detection of Intracellular ROS. HuTU 80 cells were incubated with lead compounds at concentrations of IC50/2 and IC50 for 48 h. ROS generation was investigated using flow cytometry assay and CellROX® Deep Red flow cytometry kit. For this purpose, […] cells were harvested at 2000 rpm for 5 min and then washed twice with ice-cold PBS, followed by resuspension in 0.1 mL of medium without FBS, to which was added 0.2 μL of CellROX® Deep Red, which was followed by incubation at 37 °C for 30 min. The cells were washed three times and suspended in PBS. After that, the production of ROS in the cells was immediately monitored using flow cytometer (Guava easy Cyte, MERCK, Rahway, NJ, USA).

SMILES: O=C(C[P+](c1ccccc1)(c1ccccc1)c1ccccc1)NCCC1c2c(ccc3ccccc23)Oc2ccc3ccccc3c21 [Compound 6a]
- IC50 (M-HeLa; Homo sapiens, MTT, 48 h incubation, read-out: IC50 (µM) Cancer Cell Lines M-HeLa): 11 ± 8.7 µM
- times more effective than the reference drug sorafenib (M-HeLa): three times more effective
- IC50 (HuTu 80; Homo sapiens, HuTu80, 48 h, MTT, 48 h incubation, read-out: IC50 (µM) Cancer Cell Lines HuTu 80): 1.7 ± 0.1 µM
- times more effective / more cytotoxic than the reference drug sorafenib (HuTu 80; HuTu 80): three times more effective
- IC50 (Chang Liver): 41 ± 3.5 µM
- IC50 (Hep-2): 2.34 ± 0.01 µM
- IC50 (SH-SY5Y): 10.9 ± 0.23 µM
- IC50 (A549): 5.47 ± 0.07 µM
- IC50 (PA-1): 11.2 ± 1.36 µM
- IC50 (MCF-7): 7.12 ± 0.76 µM
- apoptosis-inducing effect (in words) (HuTu 80 cells [1]): dose-dependent apoptosis
- ROS production, CellROX Deep Red fluorescence intensity (in words) (HuTu 80 cells [2]): significant reliable increase
